Measured values as given in ChEMBL document CHEMBL1201862, “PubChem BioAssay data set” (2004).
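Values below derive from 48-hour exposures of cells grown in 96-well plates, with endpoints linearly interpolated between the two concentrations bracketing the appropriate inhibition level. GI50: concentration for 50% inhibition of growth.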 Active and inactive are the calls of the source. Cut-off read from the data, not from the text of the source: active = GI50 up to about 1.1 µM and inactive = higher.

Experiments:
Experiment in all cases: DTP human tumour cell line panel, 48 h
[1] = test system: A549
[2] = test system: HOP-92
[3] = test system: OVCAR-5
[4] = test system: XF498
[5] = test system: COLO 205
[6] = test system: RXF 631
[7] = test system: DMS-273
[8] = test system: HOP-62
[9] = test system: EKVX
[10] = test system: ACHN
[11] = test system: K562
[12] = test system: OVCAR-4
[13] = test system: NCI-H23
[14] = test system: UACC-62
[15] = test system: SW-620
[16] = test system: CCRF-CEM
[17] = test system: TK-10
[18] = test system: M19-MEL
[19] = test system: SF-268
[20] = test system: HCC 2998
[21] = test system: HL-60
[22] = test system: Malme-3M
[23] = test system: NCI-H226
[24] = test system: SF-295
[25] = test system: 786-0
[26] = test system: SNB-75
[27] = test system: SK-MEL-28
[28] = test system: RPMI-8226
[29] = test system: SF-539
[30] = test system: HT-29
[31] = test system: M14
[32] = test system: SK-MEL-2
[33] = test system: A498
[34] = test system: DLD-1
[35] = test system: KM12
[36] = test system: NCI-H460
[37] = test system: MOLT-4
[38] = test system: HCT-15
[39] = test system: RXF 393
[40] = test system: KM-20L2
[41] = test system: SK-OV-3
[42] = test system: HOP-18
[43] = test system: LXFL 529
[44] = test system: DMS-114
[45] = test system: U-251
[46] = test system: SNB-19
[47] = test system: NCI-H522
[48] = test system: UACC-257
[49] = test system: IGROV-1
[50] = test system: UO-31
[51] = test system: SN12C
[52] = test system: CAKI-1
[53] = test system: OVCAR-3
[54] = test system: SNB-78
[55] = test system: SK-MEL-5
[56] = test system: LOX IMVI
[57] = test system: OVCAR-8
[58] = test system: HCT-116

`c1ccc(COc2cccc3ccc[n+](Cc4ccccc4)c23)cc1` was tested, and the GI50 [1] was 7.46 µM (inactive), the GI50 [2] was 3.41 µM (inactive) and the GI50 [3] was 1.92 µM (inactive). For the same compound, the GI50 [4] was 11.2 µM (inactive), the GI50 [5] was 6.44 µM (inactive) and the GI50 [6] was 18.9 µM (inactive). For the same compound, the GI50 [7] was 3.8 µM (inactive), the GI50 [8] was 12 µM (inactive) and the GI50 [9] was 6.43 µM (inactive). The GI50 [10] was 8.2 µM (inactive), the GI50 [11] was 2.38 µM (inactive) and the GI50 [12] was 3.6 µM (inactive). For the same compound, the GI50 [13] was 2.84 µM (inactive), the GI50 [14] was 4.6 µM (inactive) and the GI50 [15] was 9.75 µM (inactive). The GI50 [16] was 6.04 µM (inactive), the GI50 [17] was 12.1 µM (inactive) and the GI50 [18] was 3.59 µM (inactive). For the same compound, the GI50 [19] was 4.06 µM (inactive), the GI50 [20] was 13.1 µM (inactive) and the GI50 [21] was 1.93 µM (inactive). For the same compound, the GI50 [22] was 4.23 µM (inactive), the GI50 [23] was 3.31 µM (inactive) and the GI50 [24] was 4.26 µM (inactive). The GI50 [25] was 13.4 µM (inactive), the GI50 [26] was 5.2 µM (inactive) and the GI50 [27] was 3.85 µM (inactive). For the same compound, the GI50 [28] was 2.77 µM (inactive), the GI50 [29] was 7.82 µM (inactive) and the GI50 [30] was 5.01 µM (inactive). For the same compound, the GI50 [31] was 9.38 µM (inactive), the GI50 [32] was 5.21 µM (inactive) and the GI50 [33] was 16.6 µM (inactive). The GI50 [34] was 11.5 µM (inactive), the GI50 [35] was 3.41 µM (inactive) and the GI50 [36] was 8.93 µM (inactive). The GI50 [37] was 5.35 µM (inactive), the GI50 [38] was 27.5 µM and the GI50 [39] was 8.75 µM (inactive). For the same compound, the GI50 [40] was 4.12 µM (inactive), the GI50 [41] was 23.8 µM (inactive) and the GI50 [42] was 2.07 µM (inactive). The GI50 [43] was 3.62 µM (inactive), the GI50 [44] was 2.99 µM (inactive) and the GI50 [45] was 4.01 µM (inactive). For the same compound, the GI50 [46] was 3.52 µM (inactive), the GI50 [47] was 1.95 µM (inactive) and the GI50 [48] was 2.61 µM (inactive). The GI50 [49] was 3.03 µM (inactive) and the GI50 [50] was 25.8 µM (inactive).
`O=C1[C@H]2ON(c3ccccc3)C(c3ccccc3F)[C@H]2C(=O)N1c1ccc(Cc2ccc(N3C(=O)[C@@H]4ON(c5ccccc5)C(c5ccccc5F)[C@@H]4C3=O)cc2)cc1` (some centres not stated) was tested, and the GI50 [1] was > 100 µM (inactive), the GI50 [2] was 21.5 µM (inactive) and the GI50 [3] was > 100 µM (inactive). For the same compound, the GI50 [4] was > 100 µM (inactive), the GI50 [5] was > 100 µM (inactive) and the GI50 [6] was > 100 µM (inactive). For the same compound, the GI50 [51] was > 100 µM (inactive), the GI50 [7] was 46.1 µM (inactive) and the GI50 [8] was > 100 µM (inactive). The GI50 [10] was > 100 µM (inactive), the GI50 [52] was > 100 µM (inactive) and the GI50 [11] was > 100 µM (inactive). For the same compound, the GI50 [12] was > 100 µM (inactive), the GI50 [53] was > 100 µM (inactive) and the GI50 [13] was > 100 µM (inactive). For the same compound, the GI50 [14] was > 100 µM (inactive), the GI50 [15] was > 100 µM (inactive) and the GI50 [16] was > 100 µM (inactive). For the same compound, the GI50 [54] was > 100 µM (inactive), the GI50 [18] was > 100 µM (inactive) and the GI50 [19] was > 100 µM (inactive). For the same compound, the GI50 [20] was > 100 µM (inactive), the GI50 [21] was > 100 µM (inactive) and the GI50 [22] was > 100 µM (inactive). The GI50 [23] was > 100 µM (inactive), the GI50 [24] was 67.1 µM (inactive) and the GI50 [55] was > 100 µM (inactive). For the same compound, the GI50 [56] was 63.8 µM (inactive), the GI50 [25] was > 100 µM (inactive) and the GI50 [26] was > 100 µM (inactive). For the same compound, the GI50 [27] was > 100 µM (inactive), the GI50 [28] was > 100 µM (inactive) and the GI50 [29] was > 100 µM (inactive). For the same compound, the GI50 [30] was > 100 µM (inactive), the GI50 [31] was 34.8 µM (inactive) and the GI50 [32] was > 100 µM (inactive). For the same compound, the GI50 [33] was > 100 µM (inactive), the GI50 [34] was > 100 µM (inactive) and the GI50 [35] was > 100 µM (inactive). For the same compound, the GI50 [36] was > 100 µM (inactive), the GI50 [37] was > 100 µM (inactive) and the GI50 [38] was > 100 µM. The GI50 [39] was 55.2 µM (inactive), the GI50 [40] was > 100 µM (inactive) and the GI50 [41] was > 100 µM (inactive). For the same compound, the GI50 [42] was > 100 µM (inactive), the GI50 [43] was > 100 µM (inactive) and the GI50 [44] was > 100 µM (inactive). For the same compound, the GI50 [45] was > 100 µM (inactive), the GI50 [48] was 45.1 µM (inactive) and the GI50 [49] was > 100 µM (inactive). For the same compound, the GI50 [50] was > 100 µM (inactive).
For `CC(C)(C)C(=O)N1C(C(=O)O)Cc2ccccc2[C@@H]1Cc1ccccc1` (some centres not stated), the GI50 [57] was > 100 µM (inactive), the GI50 [1] was > 100 µM (inactive) and the GI50 [2] was > 100 µM (inactive). The GI50 [3] was > 100 µM (inactive), the GI50 [58] was > 100 µM (inactive) and the GI50 [4] was > 100 µM (inactive). The GI50 [5] was > 100 µM (inactive), the GI50 [6] was > 100 µM (inactive) and the GI50 [51] was > 100 µM (inactive). For the same compound, the GI50 [7] was > 100 µM (inactive), the GI50 [8] was > 100 µM (inactive) and the GI50 [9] was > 100 µM (inactive). For the same compound, the GI50 [10] was > 100 µM (inactive), the GI50 [52] was > 100 µM (inactive) and the GI50 [11] was > 100 µM (inactive). For the same compound, the GI50 [12] was > 100 µM (inactive), the GI50 [53] was > 100 µM (inactive) and the GI50 [13] was > 100 µM (inactive). The GI50 [14] was > 100 µM (inactive), the GI50 [15] was > 100 µM (inactive) and the GI50 [16] was > 100 µM (inactive). The GI50 [17] was > 100 µM (inactive), the GI50 [54] was > 100 µM (inactive) and the GI50 [18] was > 100 µM (inactive). The GI50 [19] was > 100 µM (inactive), the GI50 [20] was > 100 µM (inactive) and the GI50 [21] was > 100 µM (inactive). For the same compound, the GI50 [22] was > 100 µM (inactive), the GI50 [23] was 45.6 µM (inactive) and the GI50 [24] was > 100 µM (inactive). The GI50 [55] was > 100 µM (inactive), the GI50 [25] was > 100 µM (inactive) and the GI50 [26] was > 100 µM (inactive). For the same compound, the GI50 [27] was > 100 µM (inactive), the GI50 [28] was > 100 µM (inactive) and the GI50 [29] was > 100 µM (inactive). For the same compound, the GI50 [30] was > 100 µM (inactive), the GI50 [31] was > 100 µM (inactive) and the GI50 [32] was > 100 µM (inactive). For the same compound, the GI50 [33] was > 100 µM (inactive), the GI50 [35] was > 100 µM (inactive) and the GI50 [36] was > 100 µM (inactive). For the same compound, the GI50 [37] was > 100 µM (inactive), the GI50 [38] was > 100 µM and the GI50 [39] was > 100 µM (inactive). For the same compound, the GI50 [40] was > 100 µM (inactive), the GI50 [41] was > 100 µM (inactive) and the GI50 [42] was > 100 µM (inactive). The GI50 [43] was > 100 µM (inactive), the GI50 [44] was > 100 µM (inactive) and the GI50 [45] was > 100 µM (inactive). For the same compound, the GI50 [46] was > 100 µM (inactive), the GI50 [47] was > 100 µM (inactive) and the GI50 [48] was > 100 µM (inactive). The GI50 [49] was > 100 µM (inactive).
